Experimental data taken from paper PMC4512978, “Synthesis and evaluation in rats of homologous series of [^18F]-labeled dopamine D2/3 receptor agonists based on the 2-aminomethylchroman scaffold as potential PET tracers” (EJNMMI Research, 2015).

Test system: D2/3R
Test: Kinetic analysis of PET data (1TCM, 2TCM, Logan, SRTM);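 as to 2TCM BPND change relative to control: Raclopride 1 mg/kg intravenous pretreatment versus saline controls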;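 as to SRTM BPND change relative to control: Raclopride 1 mg/kg intravenous pretreatment versus saline controls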
Assay type: in vivo, Sprague-Dawley rats
Set-up: key to SRTM BPND / 1TCM BPND / 2TCM BPND (VT-based): BPND = VT(target)/VT(cerebellum) − 1 (or SRTM, cerebellum reference); SRTM BPND change relative to control / 1TCM BPND change relative to control / 2TCM BPND change relative to control / Logan BPND change relative to control: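 Raclopride 1 mg/kg intravenous pretreatment versus saline controls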; 1TCM VT / 2TCM VT: unit not given here
Method: Kinetic analysis is described using the nomenclature proposed by Innis et al.. ROI TACs of [^18F]FEt-AMC13 were analyzed with one-tissue and two-tissue compartmental models of reversible binding (1TCM and 2TCM, respectively) to obtain individual rate constants. From these, the regional distribution volumes (VT) were calculated and compared to those obtained with Logan graphical analysis. Binding potentials (BPND) were calculated from the distribution ratios as VT (target) / VT (cerebellum) – 1, or estimated with the simplified reference tissue model (SRTM) using the cerebellum as reference region.
Metabolite-corrected plasma-derived arterial input function and whole blood time-activity curve were used for Logan, 1TCM, and 2TCM analyses. Fractional cerebral blood volume was set to 3.6 % [27]. For one rat in the raclopride-treated group, no input curves could be obtained; therefore, its PET data were only analyzed with SRTM.
Degree of D2/3R-specific binding of the tracers was characterized by BPND (as given above) or the specific binding ratio (SBR) given as target region activity/cerebellar activity - 1. Both were calculated under control conditions and in response to the raclopride challenge.

[1] = Hypothalamus, raclopride, listed as [18F]FEt-AMC13
[2] = Olfactory bulbs, raclopride, listed as [18F]FEt-AMC13

Oc1ccc2c(c1)O[C@@H](CNCc1ccc(OCC[18F])cc1)CC2 [[^18F]FEt-AMC13]
2TCM k4 (Hypothalamus, control rat D): 0.09 ± 0.01 min⁻¹ | 1TCM BPND (Hypothalamus, raclopride): 0.22±0.04 | 1TCM BPND change relative to control (Hypothalamus, raclopride): -14% | 1TCM VT (Hypothalamus, raclopride): 5.38±0.38 | 2TCM BPND (VT-based) (Hypothalamus, raclopride): 0.18 ± 0.06 | 2TCM BPND change relative to control (Hypothalamus, raclopride): −19% | 2TCM VT (Hypothalamus, raclopride): 5.83±0.34 | Logan BPND (Hypothalamus, raclopride): 0.16±0.04 | Logan BPND change relative to control (Hypothalamus, raclopride): -25% | Logan VT (Hypothalamus, raclopride): 5.76±0.26 | SRTM BPND (Hypothalamus, raclopride): 0.16 ± 0.04 | SRTM BPND change relative to control (Hypothalamus, raclopride): −23% | 2TCM BPND (VT-based) [1]: 0.18±0.06 | 2TCM BPND change relative to control [1]: -19% | SRTM BPND [1]: 0.16±0.04 | SRTM BPND change relative to control [1]: –23% | 1TCM BPND (Olfactory bulbs, control): 0.07±0.16 | 1TCM VT (Olfactory bulbs, control): 4.99±0.62 | 2TCM BPND (VT-based) (Olfactory bulbs, control): 0.08 ± 0.13 | 2TCM VT (Olfactory bulbs, control): 5.45±0.52 | Logan BPND (Olfactory bulbs, control): 0.12±0.12 | Logan VT (Olfactory bulbs, control): 5.64±0.57 | SRTM BPND (Olfactory bulbs, control): 0.10 ± 0.13 | 1TCM K1 (Olfactory bulbs, control rat A): 0.55 ± 0.05 mL/g/min | 1TCM k2 (Olfactory bulbs, control rat A): 0.12 ± 0.02 min⁻¹ | 2TCM K1 (Olfactory bulbs, control rat A): 3.58 ± 1.65 mL/g/min | 2TCM k2 (Olfactory bulbs, control rat A): 9.75 ± 3.75 min⁻¹ | 2TCM k3 (Olfactory bulbs, control rat A): 1.20 ± 2.96 min⁻¹ | 2TCM k4 (Olfactory bulbs, control rat A): 0.09 ± 7.03 min⁻¹ | 1TCM K1 (Olfactory bulbs, control rat B): 0.49 ± 0.02 mL/g/min | 1TCM k2 (Olfactory bulbs, control rat B): 0.08 ± 0.01 min⁻¹ | 2TCM K1 (Olfactory bulbs, control rat B): 0.63 ± 0.07 mL/g/min | 2TCM k2 (Olfactory bulbs, control rat B): 0.47 ± 0.34 min⁻¹ | 2TCM k3 (Olfactory bulbs, control rat B): 0.69 ± 0.56 min⁻¹ | 2TCM k4 (Olfactory bulbs, control rat B): 0.20 ± 0.04 min⁻¹ | 1TCM K1 (Olfactory bulbs, control rat C): 0.44 ± 0.01 mL/g/min | 1TCM k2 (Olfactory bulbs, control rat C): 0.09 ± 0.005 min⁻¹ | 2TCM K1 (Olfactory bulbs, control rat C): 0.59 ± 0.10 mL/g/min | 2TCM k2 (Olfactory bulbs, control rat C): 0.68 ± 0.93 min⁻¹ | 2TCM k3 (Olfactory bulbs, control rat C): 1.07 ± 3.21 min⁻¹ | 2TCM k4 (Olfactory bulbs, control rat C): 0.23 ± 3.75 min⁻¹ | 1TCM K1 (Olfactory bulbs, control rat D): 0.50 ± 0.03 mL/g/min | 1TCM k2 (Olfactory bulbs, control rat D): 0.10 ± 0.01 min⁻¹ | 2TCM K1 (Olfactory bulbs, control rat D): 1.08 ± 0.20 mL/g/min | 2TCM k2 (Olfactory bulbs, control rat D): 1.82 ± 0.90 min⁻¹ | 2TCM k3 (Olfactory bulbs, control rat D): 0.92 ± 0.31 min⁻¹ | 2TCM k4 (Olfactory bulbs, control rat D): 0.11 ± 0.01 min⁻¹ | 1TCM BPND (Olfactory bulbs, raclopride): -0.02±0.03 | 1TCM BPND change relative to control (Olfactory bulbs, raclopride): -127% | 1TCM VT (Olfactory bulbs, raclopride): 4.36±0.55 | 2TCM BPND (VT-based) (Olfactory bulbs, raclopride): 0.01 ± 0.04 | 2TCM BPND change relative to control (Olfactory bulbs, raclopride): −88% | 2TCM VT (Olfactory bulbs, raclopride): 5.02±0.61 | Logan BPND (Olfactory bulbs, raclopride): 0.03±0.03 | Logan BPND change relative to control (Olfactory bulbs, raclopride): -74% | Logan VT (Olfactory bulbs, raclopride): 5.14±0.43 | SRTM BPND (Olfactory bulbs, raclopride): 0.11 ± 0.05 | SRTM BPND change relative to control (Olfactory bulbs, raclopride): +10% | 2TCM BPND (VT-based) [2]: 0.01±0.04 | 2TCM BPND change relative to control [2]: -88% | SRTM BPND [2]: 0.11±0.05 | 1TCM BPND (Pituitary, control): 0.32±0.05 | 1TCM VT (Pituitary, control): 6.16±0.35 | 2TCM BPND (VT-based) (Pituitary, control): 0.36 ± 0.07 | 2TCM VT (Pituitary, control): 6.89±0.32 | Logan BPND (Pituitary, control): 0.42±0.05 | Logan VT (Pituitary, control): 7.15±0.49 | SRTM BPND (Pituitary, control): 0.71 ± 0.32 | 1TCM K1 (Pituitary, control rat A): 0.52 ± 0.05 mL/g/min | 1TCM k2 (Pituitary, control rat A): 0.08 ± 0.02 min⁻¹ | 2TCM K1 (Pituitary, control rat A): 6.16 ± 6.57 mL/g/min | 2TCM k2 (Pituitary, control rat A): 16.8 ± 16.5 min⁻¹ | 2TCM k3 (Pituitary, control rat A): 1.11 ± 15.04 min⁻¹ | 2TCM k4 (Pituitary, control rat A): 0.06 ± 22.82 min⁻¹ | 1TCM K1 (Pituitary, control rat B): 0.63 ± 0.04 mL/g/min | 1TCM k2 (Pituitary, control rat B): 0.10 ± 0.01 min⁻¹ | 2TCM K1 (Pituitary, control rat B): 1.23 ± 0.31 mL/g/min | 2TCM k2 (Pituitary, control rat B): 1.62 ± 0.42 min⁻¹ | 2TCM k3 (Pituitary, control rat B): 0.99 ± 1.42 min⁻¹ | 2TCM k4 (Pituitary, control rat B): 0.12 ± 2.70 min⁻¹ | 1TCM K1 (Pituitary, control rat C): 0.52 ± 0.02 mL/g/min | 1TCM k2 (Pituitary, control rat C): 0.08 ± 0.01 min⁻¹ | 2TCM K1 (Pituitary, control rat C): 0.97 ± 0.34 mL/g/min | 2TCM k2 (Pituitary, control rat C): 1.54 ± 0.73 min⁻¹ | 2TCM k3 (Pituitary, control rat C): 1.23 ± 2.61 min⁻¹ | 2TCM k4 (Pituitary, control rat C): 0.13 ± 4.28 min⁻¹ | 1TCM K1 (Pituitary, control rat D): 0.67 ± 0.05 mL/g/min | 1TCM k2 (Pituitary, control rat D): 0.12 ± 0.02 min⁻¹ | 2TCM K1 (Pituitary, control rat D): 1.38 ± 0.24 mL/g/min | 2TCM k2 (Pituitary, control rat D): 1.48 ± 0.20 min⁻¹ | 2TCM k3 (Pituitary, control rat D): 0.69 ± 0.58 min⁻¹ | 2TCM k4 (Pituitary, control rat D): 0.11 ± 1.34 min⁻¹ | 1TCM BPND (Pituitary, raclopride): 0.18±0.05 | 1TCM BPND change relative to control (Pituitary, raclopride): -38% | 1TCM VT (Pituitary, raclopride): 5.33±0.88 | 2TCM BPND change relative to control (Pituitary, raclopride): −23% | 2TCM VT (Pituitary, raclopride): 6.34±0.82 | Logan BPND change relative to control (Pituitary, raclopride): -26% | Logan VT (Pituitary, raclopride): 6.53±0.44
